# Data reported in patent US8697888B2, “Substituted (1-(methylsulfonyl)azetidin-3-yl)(heterocycloalkyl)methanone analogs as antagonists of muscarinic acetylcholine M1 receptors” (Vanderbilt University, priority 2012, dated 2014).
# Read-outs that look alike come from different tables or passages of the source.
# Target: T1, mAChR M1 (UniProt P11229)
# T1 sequence (P11229 1-460): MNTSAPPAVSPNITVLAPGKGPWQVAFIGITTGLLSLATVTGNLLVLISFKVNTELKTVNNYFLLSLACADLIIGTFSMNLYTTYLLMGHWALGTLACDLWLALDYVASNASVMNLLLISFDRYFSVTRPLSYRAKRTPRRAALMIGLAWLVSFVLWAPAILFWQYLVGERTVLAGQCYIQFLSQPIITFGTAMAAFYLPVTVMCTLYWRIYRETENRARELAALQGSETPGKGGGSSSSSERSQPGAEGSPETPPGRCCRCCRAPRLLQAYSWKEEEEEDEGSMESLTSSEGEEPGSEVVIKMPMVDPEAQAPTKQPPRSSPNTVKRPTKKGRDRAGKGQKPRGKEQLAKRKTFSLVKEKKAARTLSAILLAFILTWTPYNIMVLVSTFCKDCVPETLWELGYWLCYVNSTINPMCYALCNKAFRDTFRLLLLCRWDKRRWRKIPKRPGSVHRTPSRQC
# Assay: mAChR M1 cell-based functional assay (calcium mobilization, antagonist mode)
# Excerpt: Chinese hamster ovary (CHO-K1) cells stably expressing rat (r)M1 were purchased from the American Type Culture Collection and cultured according to their indicated protocol. CHO cells stably expressing human (h)M2, hM3, and hM5 were described previously (Levey, et al., 1991); hM1 and hM4 cDNAs were purchased from Missouri S&T cDNA Resource; rM4 cDNA was provided by T. I. Bonner (National Institutes of Health, Bethesda, Md.). rM2 and rM3 were cloned from a rat brain cDNA library and sequence verified. hM1, rM2, rM3, hM4, and rM4 cDNAs were used to stably transfect CHO-K1 cells purchased from the American Type Culture Collection using Lipofectamine-2000. To make stable rM2, hM2, rM3, hM4, and rM4 cell lines for use in calcium mobilization assays, these cells also were stably transfected with a chimeric G-protein (Gqi5) (provided by B. R. Conklin, University of California, San Francisco) using Lipofectamine 2000. rM1, hM1, rM3, hM3, rM5, and hM5 cells were grown in Ham's F-12 medium containing 10% heat-inactivated fetal bovine serum (FBS), 20 mM HEPES, and 50 μg/mL G418 sulfate. rM2-Gqi5, hM2-Gqi5, and hM4-Gqi5 cells were grown in the same medium also containing 500 μg/mL Hygromycin B. Stable rM4-Gqi5 cells were grown in DMEM containing 10% heat-inactivated FBS, 20 mM HEPES, 400 μg/mL G418 sulfate, and […].
# For high throughput measurement of antagonist inhibited increases in intracellular calcium, CHO-K1 cells stably expressing muscarinic receptors were plated in growth medium lacking G418 and hygromycin at 15,000 cells/20 μL/well in Greiner 384-well black-walled, tissue culture (TC)-treated, clear-bottom plates (VWR). Cells were incubated overnight at 37° C. and 5% CO2. The next day, cells were washed using an ELX 405 (BioTek) with four washes (80 μL) of assay buffer then aspirated to 20 μL. Next, 20 μL of 16 μM Fluo-4/acetoxymethyl ester (Invitrogen, Carlsbad, Calif.) prepared as a 2.3 mM stock in DMSO and mixed in a 1:1 ratio with 10% (w/v) Pluronic F-127 and diluted in assay buffer was added to the wells and the cell plates were incubated for 50 min at 37° C. and 5% CO2. Dye was removed by washing with the ELX 405 (four 80 μL washes of assay buffer) then aspirated to 20 μL. Compound master plates were formatted in an 11 point CRC format (1:3 dilutions) in 100% DMSO with a starting concentration of 10 mM using the BRAVO liquid handler (Agilent). Test compound CRCs were then transferred to daughter plates (240 nL) using the Echo acoustic plate reformatter (Labcyte, Sunnyvale, Calif.) and then diluted into assay buffer (40 μL) to a 2× stock using a Thermo Fisher Combi (Thermo Fisher Scientific, Waltham, Mass.).
# Calcium flux was measured using the Functional Drug Screening System (FDSS) 6000 (Hamamatsu Corporation, Tokyo, Japan) as an increase in the fluorescent static ratio. Compounds were applied to cells (20 μL, 2×) using the automated system of the FDSS 6000 at 4 s into the 300 s protocol and the data were collected at 1 Hz. At 144 s into the 300 s protocol, 10 μL of an EC20 concentration of the muscarinic receptor agonist acetylcholine was added (5×), followed by the addition of 12 μL an EC80 concentration of acetylcholine at the 230 s time point (5×). Agonist activity was analyzed as a concentration-dependent increase in calcium mobilization upon compound addition. Positive allosteric modulator activity was analyzed as a concentration-dependent increase in the EC20 acetylcholine response. Antagonist activity was analyzed as a concentration-dependent decrease in the EC80 acetylcholine response. Concentration-response curves were generated using a four-parameter logistical equation in XLfit curve fitting software (IDBS, Bridgewater, N.J.) for Excel (Microsoft, Redmond, Wash.) or Prism (GraphPad Software, Inc., San Diego, Calif.).
# The calcium mobilization assay was used to determine “potency”.
# [1] = activity remaining at top dose of 30 μM test compound, as percentage of the response to an approx. EC80 concentration of ACh
# [2] = concentration of antagonist decreasing calcium flux by 50%; EC80 acetylcholine response; CHO-K1 cells expressing mAChR M1; read-out: Potency (IC50)
# [3] = dash = baseline or about zero remaining activity (table footnote)
Compound,Remaining Activity (%) [1],IC50 [2],Remaining Activity (%) [3],IC50 (read-out: Potency (IC50); concentration of antagonist decreasing calcium flux by 50%; EC80 acetylcholine response; CHO-K1 cells expressing mAChR M1)
Cc1nc(-c2cccc(S(=O)(=O)N3CC(C(=O)N4CCN(c5ccncc5)CC4)C3)c2)no1 [B71],≧80%,> 10000 nM,,
O=C(C1CN(S(=O)(=O)c2cccc3ncccc23)C1)N1CCN(c2ccncc2)CC1 [B26],,,"— (Unless otherwise indicated with a numerical value, the percent remaining activity is baseline or about zero, i.e. as indicated by “—”)",
Cn1cc(S(=O)(=O)N2CC(C(=O)N3CCN(c4ccncc4)CC3)C2)cn1 [B18],,740 nM,"— (Unless otherwise indicated with a numerical value, the percent remaining activity is baseline or about zero, i.e. as indicated by “—”)",
O=C(C1CN(S(=O)(=O)c2cccc3cnccc23)C1)N1CCN(c2ccncn2)CC1 [B20],,,"— (Unless otherwise indicated with a numerical value, the percent remaining activity is baseline or about zero, i.e. as indicated by “—”)",
Cn1ccc(-c2ccccc2S(=O)(=O)N2CC(C(=O)N3CCN(c4ccncc4)CC3)C2)n1 [B64],≧80%,> 10000 nM,,
O=C(C1CN(S(=O)(=O)c2cccc(OC(F)F)c2)C1)N1CCN(c2ccncc2)CC1 [B68],≧80%,> 10000 nM,,
O=C(C1CN(S(=O)(=O)c2ccc3[nH]c(=O)oc3c2)C1)N1CCN(c2ccncc2)CC1 [B75],≧80%,> 10000 nM,,
Cn1ccnc1N1CCN(C(=O)C2CN(S(=O)(=O)c3cccc4nonc34)C2)CC1 [B62],≧80%,> 10000 nM,,
O=C(C1CN(S(=O)(=O)c2cccc3nonc23)C1)N1CCN(c2ccccn2)CC1 [B31],11%,> 10000 nM,,
O=C(C1CN(S(=O)(=O)C2CCOCC2)C1)N1CCN(c2ccncc2)CC1 [B81],≧80%,> 10000 nM,,
O=C(C1CN(S(=O)(=O)c2cccc3c(Cl)nc(Cl)cc23)C1)N1CCN(c2ccncc2)CC1 [B30],,,"— (Unless otherwise indicated with a numerical value, the percent remaining activity is baseline or about zero, i.e. as indicated by “—”)",
O=C(C1CN(S(=O)(=O)c2cccc(F)c2)C1)N1CC2CN(c3ccncc3)CC2C1 (stereo not shown) [B59],,2100 nM,"— (Unless otherwise indicated with a numerical value, the percent remaining activity is baseline or about zero, i.e. as indicated by “—”)",
O=C(C1CN(S(=O)(=O)c2ccc(Cl)nc2)C1)N1CCN(c2ccncc2)CC1 [B12],,350 nM,"— (Unless otherwise indicated with a numerical value, the percent remaining activity is baseline or about zero, i.e. as indicated by “—”)",
CN1CCOc2cc(S(=O)(=O)N3CC(C(=O)N4CCN(c5ccncc5)CC4)C3)cnc21 [B73],≧80%,> 10000 nM,,
Cc1nc(C(F)(F)F)c(S(=O)(=O)N2CC(C(=O)N3CCN(c4ccncc4)CC3)C2)s1 [B27],,2000 nM,"— (Unless otherwise indicated with a numerical value, the percent remaining activity is baseline or about zero, i.e. as indicated by “—”)",
O=C(C1CN(S(=O)(=O)c2cccc3cnccc23)C1)N1CC2CN(c3ccncc3)CC2C1 (stereo not shown) [B3],,57 nM,"— (Unless otherwise indicated with a numerical value, the percent remaining activity is baseline or about zero, i.e. as indicated by “—”)",
O=C(C1CN(S(=O)(=O)c2cccc(F)c2)C1)N1CCN(c2ccncc2)CC1 [B23],,1500 nM,"— (Unless otherwise indicated with a numerical value, the percent remaining activity is baseline or about zero, i.e. as indicated by “—”)",
O=C(C1CN(S(=O)(=O)c2cccc(Cl)c2Cl)C1)N1CC2CN(c3ccncc3)CC2C1 (stereo not shown) [B58],,,"— (Unless otherwise indicated with a numerical value, the percent remaining activity is baseline or about zero, i.e. as indicated by “—”)",
CC(C)(C)CS(=O)(=O)N1CC(C(=O)N2CC3CN(c4ccncc4)CC3C2)C1 (stereo not shown) [B55],56%,,,> 10000 nM
CN1CCN(C(=O)C2CN(S(=O)(=O)c3cccc4cnccc34)C2)CC1 [B80],≧80%,> 10000 nM,,
CC(C)S(=O)(=O)N1CC(C(=O)N2CC3CN(c4ccncc4)CC3C2)C1 (stereo not shown) [B84],≧80%,> 10000 nM,,

# More lines, main results first:
Remaining Activity (%) [1],IC50 [2],Compound,Remaining Activity (%) [3],IC50 (read-out: Potency (IC50); concentration of antagonist decreasing calcium flux by 50%; EC80 acetylcholine response; CHO-K1 cells expressing mAChR M1)
≧80%,> 10000 nM,O=C(C1CN(S(=O)(=O)c2cccc(OC(F)(F)F)c2)C1)N1CCN(c2ccncc2)CC1 [B69],,
≧80%,> 10000 nM,Cn1nccc1-c1cccc(S(=O)(=O)N2CC(C(=O)N3CCN(c4ccncc4)CC3)C2)c1 [B65],,
,95 nM,O=C(C1CN(S(=O)(=O)c2ccc3c(c2)CCO3)C1)N1CCN(c2ccncc2)CC1 [B5],"— (Unless otherwise indicated with a numerical value, the percent remaining activity is baseline or about zero, i.e. as indicated by “—”)",
,640 nM,O=C(C1CN(S(=O)(=O)c2cccc3c(Cl)nccc23)C1)N1CCN(c2ccncc2)CC1 [B17],"— (Unless otherwise indicated with a numerical value, the percent remaining activity is baseline or about zero, i.e. as indicated by “—”)",
,780 nM,O=C(C1CN(S(=O)(=O)c2cccc3cnc(Cl)cc23)C1)N1CCN(c2ccncc2)CC1 [B19],"— (Unless otherwise indicated with a numerical value, the percent remaining activity is baseline or about zero, i.e. as indicated by “—”)",
,2800 nM,O=C(C1CN(S(=O)(=O)c2ccccc2OC(F)(F)F)C1)N1CCN(c2ccncc2)CC1 [B29],"— (Unless otherwise indicated with a numerical value, the percent remaining activity is baseline or about zero, i.e. as indicated by “—”)",
,1500 nM,O=C(C1CN(S(=O)(=O)c2ccc3occc3c2)C1)N1CCN(c2ccncc2)CC1 [B24],"— (Unless otherwise indicated with a numerical value, the percent remaining activity is baseline or about zero, i.e. as indicated by “—”)",
≧80%,> 10000 nM,O=C1CCc2cc(S(=O)(=O)N3CC(C(=O)N4CCN(c5ccncc5)CC4)C3)ccc2N1 [B79],,
,87 nM,O=C(C1CN(S(=O)(=O)c2cccc3cnccc23)C1)N1CC2CN(c3ccccn3)CC2C1 (stereo not shown) [B4],"— (Unless otherwise indicated with a numerical value, the percent remaining activity is baseline or about zero, i.e. as indicated by “—”)",
≧80%,> 10000 nM,O=C(C1CN(S(=O)(=O)c2ccc3[nH]ncc3c2)C1)N1CCN(c2ccncc2)CC1 [B76],,
